Results from US20240307550A1, “MODULATION OF CD46 CELL SURFACE MARKER IN BOTH ANDROGEN RECEPTOR-POSITIVE AND NEGATIVE CANCER CELLS” (The Regents of the University of California, priority 2021, published 2024).
Values belong to the molecule of their own block, whether it stands above or below them.

Tests used:
[1] = test system: CD46 cell surface expression, 22Rv1 cells; assay: CD46 cell surface expression by flow cytometry using YS5, 22Rv1 cells; assay type: cell-based
Description: (§1) AR positive 22Rv1 cells were exposed to enzalutamide (5 μM) and CD46 cell surface expression was measured by flow cytometry using YS5. As a reference, prostate specific membrane antigen (PSMA) was also measured at the same time. […] MFI: median fluorescence intensity. See right portion of FIG. 1.
(§2) Methods: 22Rv1 and Du145 cells were exposed to varying concentrations of the Stat3 inhibitor C188-9 and the glucocorticoid receptor inhibitor mifepristone for 7-10 days at 37° C. in culture media, and cell surface CD46 expression is detected by flow cytometry using the anti-CD46 antibody YS5 followed by AlexaFluo-617 labeled anti-human Fc secondary antibody. MFI (median fluorescence intensity) was recorded and analyzed by Student t-test (for two group comparison) and One-way ANOVA (for group number >2).

[2] = test system: CD46 cell surface expression, Du145 cells; assay: CD46 cell surface expression by flow cytometry, Du145 cells; assay type: cell-based; settings: 7 days; for CD46 cell surface expression (MFI): Du145 cells, 37° C.
Description: as §2

[3] = test system: CD46 cell surface antigen density, H660 cells; assay: CD46 cell surface antigen density by quantitative flow cytometry, H660 cells; assay type: cell-based; settings: AR-negative neuroendocrine H660 cells, 10 μM abiraterone
Description: The neuroendocrine prostate cancer cell line H660, which is AR-negative, was exposed to an ASI (in this case, 10 μM abiraterone), and CD46 cell surface antigen density was measured by quantitative flow cytometry. Over 2-fold increase of CD46 antigen density was found following ASI treatment.

[4] = test system: CD46 cell surface expression, VCaP cells; assay: CD46 cell surface expression by flow cytometry using YS5, VCaP cells; assay type: cell-based; settings: AR positive VCaP cells, enzalutamide 5 μM, versus control cells
Description: AR positive VCaP cells were exposed to enzalutamide (5 μM) and CD46 cell surface expression was measured by flow cytometry using the YS5 antibody. MFI: median fluorescence intensity.

[5] = test system: CD46 antigen density, LNCaP-C4-2B cells; assay: CD46 antigen density by quantitative flow cytometry, LNCaP-C4-2B cells; assay type: cell-based; settings: 10 μM, 7 days
Description: CD46 antigen density was *p<0.05; **p<0.01 (p=0.0091), Student's test, duplicates.

[6] = test system: LNCaP-C4-2B xenografts; assay type: in vivo; settings: mice with subcu LNCaP-C4-2B xenografts; 50 mg/kg daily for 4 weeks from day 10; single iv 3 mg/kg CD46 ADC on Day-14; 69 days
Description: An in vivo tumor implantation mouse model was studied to measure the effect of pre-treatment with enzalutamide followed by andi-CD46 ADC treatment. LNCaP-C4-2B cells were implanted in mice subcu on Day-0. Starting on day 10, the mice were administered with 50 mg/kg, daily, for 4 weeks. […] FIG. 7 depicts the survival rate of the mice.

[7] = test system: prostate specific membrane antigen (PSMA), 22Rv1 cells; assay: PSMA measured as reference by flow cytometry, 22Rv1 cells; assay type: cell-based; settings: AR positive 22Rv1 cells, enzalutamide 5 μM
Description: as §1

[8] = target: T1, CD46 on the surface of prostate cancer cells (human, UniProt P15529 35-392); assay: cell-based or functional assay
T1 sequence (looked up): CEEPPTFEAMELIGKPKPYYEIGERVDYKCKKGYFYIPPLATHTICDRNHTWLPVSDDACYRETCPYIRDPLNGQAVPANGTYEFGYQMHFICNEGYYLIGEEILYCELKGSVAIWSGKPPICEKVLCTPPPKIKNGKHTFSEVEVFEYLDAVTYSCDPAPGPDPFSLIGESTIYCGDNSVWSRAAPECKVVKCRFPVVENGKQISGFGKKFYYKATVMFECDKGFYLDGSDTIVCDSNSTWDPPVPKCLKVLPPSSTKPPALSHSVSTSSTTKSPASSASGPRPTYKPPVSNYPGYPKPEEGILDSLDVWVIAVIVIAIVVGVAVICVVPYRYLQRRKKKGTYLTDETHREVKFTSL

[9] = target: T1, CD46 on the surface of prostate cancer …; assay: flow cytometry on VCaP and 22Rv1 cells (figure legend)
Description: AR positive VCaP cells were exposed to enzalutamide (5 μM) and CD46 cell surface expression was measured by flow cytometry using the YS5 antibody. MFI: median fluorescence intensity. […] AR positive 22Rv1 cells were exposed to enzalutamide (5 μM) and CD46 cell surface expression was measured by flow cytometry using YS5. As a reference, prostate specific membrane antigen (PSMA) was also measured at the same time. Enzalutamide-induced upregulation was unique to CD46 but not PSMA. MFI: median fluorescence intensity. See right portion of FIG. 1.
AR positive 22Rv1 cells were exposed to enzalutamide (5 μM) and CD46 cell surface expression was measured by flow cytometry using YS5. As a reference, prostate specific membrane antigen (PSMA) was also measured at the same time. Enzalutamide-induced upregulation was unique to CD46 but not PSMA. MFI: median fluorescence intensity. See right portion of FIG. 1.

Molecule: COc1ccc(S(=O)(=O)Nc2cc(-c3c(O)ccc4ccccc34)c(O)c3ccccc23)cc1 [C188-9, N-(1′, 2-Dihydroxy-1,2′-binaphthalen-4′-yl)-4-methoxybenzenesulfonamide]
- CD46 cell surface expression (MFI) ([1]; 22Rv1 cells, C188-9 low/mid concentrations (2.5 and 5 μM), 37° C., 10 days): stimulates CD46 cell surface presentation
- CD46 cell surface presentation (MFI) ([1]; prostate cancer cells (22Rv1, 10 μM, 10 days, single experiment, FIG. 12; Du145, FIG. 13), C188-9 high concentrations (>10 μM)): inhibits
- CD46 cell surface expression (MFI) ([2]; C188-9 10, 20 and 50 μM): inhibits CD46 cell surface presentation

Molecule: C[C@]12CC[C@H](O)CC1=CC[C@@H]1[C@@H]2CC[C@]2(C)C(c3cccnc3)=CC[C@@H]12 [abiraterone]
- increase of CD46 antigen density [3]: Over 2 fold

Molecule: CNC(=O)c1ccc(N2C(=S)N(c3ccc(C#N)c(C(F)(F)F)c3)C(=O)C2(C)C)cc1F [enzalutamide]
- CD46 cell surface expression (MFI) [4]: significantly more CD46 expression than control cells
- CD46 antigen density [5]: increased
- CD46 cell surface expression (MFI) ([1]; AR positive 22Rv1 cells, enzalutamide 5 μM): upregulation was unique to CD46
- CD46 cell surface expression ([2]; AR-null Du145 cells, enzalutamide 5 μM, p<0.0001, n=4): increase significantly
- tumor response / overall survival (Kaplan-Meier) [6]: resistant to enz treatment alone
- PSMA expression (MFI) [7]: not PSMA

Molecule: CC#C[C@]1(O)CC[C@H]2[C@@H]3CCC4=CC(=O)CCC4=C3[C@@H](c3ccc(N(C)C)cc3)C[C@@]21C [mifepristone]
- CD46 cell surface expression (MFI) ([1]; 22Rv1 cells, mifepristone 2.5 μM, 37° C., 10 days, Student t test): not significant
- CD46 cell surface expression (MFI) ([2]; mifepristone high concentrations (20 and 50 PM)): inhibits CD46 cell surface presentation

B1: CD46 ADC (YS5-MC-vc-PAB-MMAF) (antibody, human IgG1, lambda, V domains shown)
VH: QVQLVQSGGGVVQPGRSLRLACAASGLTVNNYAMHWVRQAPGKGLEWVAVISYDGNNKYYADSVKGRFTISRDNSKNTLYLQMNSLRAEDTAVYYCAKGGGYFDLWGRGTLVTVSS
VL: QSVLTQPPSVSGAPGQRVTISCTGSSSNIGAGYDVHWYQQLPGTAPKLLIYGNNNRPSGVPDRFSGSKSGTSASLAITGLQAEDEADYYCSSYTSGTWLFGGGTKLTVLG
modifications: MC-vc-PAB-MMAF drug-linker conjugated; sites and drug to antibody ratio not stated for this conjugate
- EC50 of cell killing, LNCaP-C4-2B cells pre-exposed to abiraterone against cells not pre-exposed [8]: 17 fold

- binding result [9]: binds
B2: YS5 anti-CD46 antibody (antibody, human IgG1, lambda, V domains shown)
VH: B1 VH
VL: B1 VL
notes: also called YS5FL; anti-CD46 antibody YS5
